Where two headings read alike, the source gives them in different places. Marks after values point to notes of the source that are not given here.
Legend:
Phakopsora pachyrhizi = experiment: Example L: Phakopsora test (soybeans)/preventive; assay type: in vivo; details: 100 ppm of active ingredient, preventive, evaluated 7 days after inoculation
Venturia inaequalis = experiment: Example O: Venturia test (apples)/preventive; assay type: in vivo; details: 100 ppm of active ingredient, preventive, evaluated 10 days after inoculation
Description: Solvent: 24.5 parts by weight of acetone • 24.5 parts by weight of dimethylacetamide Emulsifier: 1 part by weight of alkylaryl polyglycol ether To produce a suitable preparation of active compound, 1 part by weight of active compound is mixed with the stated amounts of solvent and emulsifier, and the concentrate is diluted with water to the desired concentration. To test for preventive activity, young plants are sprayed with the preparation of active compound at the stated rate of application.

[1] = tested on: Fusarium nivale (var. majus); experiment: Example J: Fusarium nivale (var. majus)-test (wheat)/preventive; assay type: in vivo; details: 500 ppm of active ingredient, preventive, evaluated 5 days after inoculation
Description: (§1) Solvent: 49 parts by weight of N,N-dimethylacetamide
(§2) Emulsifier: 1 part by weight of alkylaryl polyglycol ether
(§3) To produce a suitable preparation of active compound, 1 part by weight of active compound or active compound combination is mixed with the stated amounts of solvent and emulsifier, and the concentrate is diluted with water to the desired concentration.
To test for preventive activity, young plants are sprayed with the preparation of active compound or active compound combination at the stated rate of application.
After the spray coating has been dried, the plants are slightly injured by using a sandblast and afterwards they are sprayed with a conidia suspension of Fusarium nivale (var. majus).
The plants are placed in the greenhouse under a translucent incubation cabinet at a temperature of approximately 10° C. and a relative atmospheric humidity of approximately 100%.
(§4) The test is evaluated 5 days after the inoculation. 0% means an efficacy which corresponds to that of the untreated control, while an efficacy of 100% means that no disease is observed.

Leptosphaeria nodorum = experiment: Example K: Leptosphaeria nodorum test (wheat)/preventive; assay type: in vivo; details: 500 ppm of active ingredient, preventive, evaluated 8 days after inoculation
Description: Solvent: 49 parts by weight of N,N-dimethylacetamide Emulsifier: 1 part by weight of alkylaryl polyglycol ether To produce a suitable preparation of active compound, 1 part by weight of active compound or active compound combination is mixed with the stated amounts of solvent and emulsifier, and the concentrate is diluted with water to the desired concentration. To test for preventive activity, young plants are sprayed with the preparation of active compound or active compound combination at the stated rate of application. After the spray coating has been dried, the plants are sprayed with a spore suspension of Leptosphaeria nodorum.

Puccinia recondita = experiment: Example B: in vivo preventive test on Puccinia recondita (brown rust on wheat); details: wheat plants, preventive spray, evaluated 11 days after inoculation
Description: (§5) The young plants of wheat are treated by spraying the active ingredient prepared as described above. Control plants are treated only with an aqueous solution of acetone/Dimethyl sulfoxide/Tween®. After 24 hours, the plants are contaminated by spraying the leaves with an aqueous suspension of Puccinia recondita spores.

Pyrenophora teres = experiment: Example C: in vivo preventive test on Pyrenophora teres (net blotch on barley); details: barley plants, preventive spray, evaluated 14 days after inoculation
Description: as §5, with “barley” for “wheat”, “Pyrenophora teres” for “Puccinia recondita”

Botrytis cinerea = experiment: Example A: in vivo preventive test on Botrytis cinerea (grey mould); details: gherkin plants, preventive spray, evaluated 4 to 5 days after inoculation
Description: as §5, with “gherkin” for “wheat”, “Botrytis cinerea” for “Puccinia recondita”

Uromyces appendiculatus = experiment: Example F: in vivo preventive test on Uromyces appendiculatus (bean rust); details: bean plants, preventive spray, evaluated 11 days after inoculation
Description: as §5, with “bean” for “wheat”, “Uromyces appendiculatus” for “Puccinia recondita”

Sphaerotheca fuliginea = experiment: Example E: in vivo preventive test on Sphaerotheca fuliginea (powdery mildew on cucurbits); details: gherkin plants, preventive spray, evaluated 15 days after inoculation
Description: as §5, with “gherkin” for “wheat”, “Sphaerotheca fuliginea” for “Puccinia recondita”

Fusarium culmorum = experiment: Example H: Fusarium culmorum-test (wheat)/curative; assay type: in vivo; details: 500 ppm of active ingredient, curative, evaluated 5 days after inoculation
Description: as §1, §2, §3
To test for curative activity, young plants are slightly injured by using a sandblast and afterwards they are sprayed with a conidia suspension of Fusarium culmorum and placed for 24 hours in a greenhouse under a translucent incubation cabinet at a temperature of approximately 22° C. and a relative atmospheric humidity of approximately 100% and are subsequently sprayed with the preparation of active compound at the stated rate of application.
After the spray coating has been dried, the plants remain in the greenhouse under translucent incubation cloches at a temperature of approximately 22° C. and a relative atmospheric humidity of approximately 100%.
as §4

[2] = tested on: Blumeria graminis f. sp. hordei; experiment: Example G: Blumeria test (barley)/preventive; assay type: in vivo; details: 500 ppm of active ingredient, preventive, evaluated 7 days after inoculation
Description: Solvent: 49 parts by weight of N,N-dimethylacetamide Emulsifier: 1 part by weight of alkylaryl polyglycol ether To produce a suitable preparation of active compound, 1 part by weight of active compound or active compound combination is mixed with the stated amounts of solvent and emulsifier, and the concentrate is diluted with water to the desired concentration. To test for preventive activity, young plants are sprayed with the preparation of active compound or active compound combination at the stated rate of application. After the spray coating has been dried, the plants are dusted with spores of Blumeria graminis f. sp. hordei.

Fusarium graminearum = assay type: in vivo; details: 500 ppm of active ingredient; barley, preventive; evaluated 5 days after inoculation
Septoria tritici = experiment: Example D: in vivo preventive test on Septoria tritici (leaf spot on wheat); details: wheat plants, preventive spray, evaluated 24 days after inoculation
Description: as §5, with “Septoria tritici” for “Puccinia recondita”

Pyricularia oryzae = assay type: in vivo; details: 500 ppm of active ingredient; rice, preventive; evaluated 8 days after inoculation

Compound | Eff. % (Phakopsora pachyrhizi) | Eff. % (Venturia inaequalis) | Eff. % [1] | Eff. % (Leptosphaeria nodorum) | Eff. % (Puccinia recondita; 500 ppm of active ingredient) | LogP (pH 2.7) | Eff. % (Pyrenophora teres; 500 ppm of active ingredient) | Eff. % (Botrytis cinerea; 500 ppm of active ingredient) | Eff. % (Uromyces appendiculatus; 500 ppm of active ingredient) | Eff. % (Sphaerotheca fuliginea; 500 ppm of active ingredient) | Eff. % (Fusarium culmorum) | Eff. % [2] | Eff. % (Fusarium graminearum) | Eff. % (Septoria tritici; 500 ppm of active ingredient) | Eff. % (Pyricularia oryzae) | also measured
OC(Cc1c(Cl)cncc1Cl)(Cn1cncn1)C1(F)CC1 (racemic) [Example I-62] | 99% | 100% | 100% | 100% | 98% | 1.86^[a] | 100% | 100% | 100% | 100% | 83% | 100% | 100% | 100% |  | 
OC(Cc1cc(F)ncc1Cl)(Cn1cncn1)C1(F)CC1 (racemic) [Example I-65] | 100% | 100% | 100% | 100% | 98% | 1.77^[a] | 100% | 100% | 100% | 100% | 100% | 100% | 100% | 100% | 86% | 
OC(Cc1cccnc1Cl)(Cn1cncn1)C1(F)CC1 (stereo not drawn) [Example I-25] | 99% | 89% | 100% | 100% |  | 1.42^[a] |  |  |  |  | 100% | 100% | 100% |  |  | Eff. % (Puccinia recondita; 100 ppm of active ingredient): 100%; Eff. % (Pyrenophora teres; 100 ppm of active ingredient): 97%; Eff. % (Botrytis cinerea; 100 ppm of active ingredient): 99%; Eff. % (Uromyces appendiculatus; 100 ppm of active ingredient): 100%; Eff. % (Sphaerotheca fuliginea; 100 ppm of active ingredient): 100%; Eff. % (Septoria tritici; 100 ppm of active ingredient): 100%
OC(Cc1nccnc1I)(Cn1cncn1)C1(Cl)CC1 (stereo not drawn) [Example I-54] | 99% | 89% | 100% |  | 97% | 2.07^[a] |  | 100% | 100% | 100% |  | 100% | 100% | 100% | 78% | 
OC(Cc1ccnc(Cl)c1Cl)(Cn1cncn1)C1(Cl)CC1 (racemic) [Example I-82] | 100% | 95% | 100% | 100% | 98% | 2.39^[a] | 97% | 100% | 100% | 100% |  | 100% | 100% | 100% | 100% | 
OC(Cc1ccc(Cl)nc1Cl)(Cn1cncn1)C1(Cl)CC1 (stereo not drawn) [Example I-53] | 93% | 97% | 100% | 100% | 94% | 2.55^[a] | 86% | 100% | 98% | 100% | 90% | 100% | 100% | 100% | 80% | 
OC(Cc1ccnc(Cl)c1F)(Cn1cncn1)C1(Cl)CC1 (stereo not drawn) [Example I-60] | 100% | 100% | 100% | 100% | 98% | 2.02^[a] | 100% | 100% | 100% | 100% | 83% | 100% | 100% | 97% |  | 
CC(CF)(CF)C(O)(Cc1ccncc1Cl)Cn1cncn1 (stereo not drawn) [Example I-6] | 95% | 100% | 100% | 100% |  | 1.54^[a] |  |  |  |  | 100% | 100% | 100% |  | 83% | Eff. % (Puccinia recondita; 100 ppm of active ingredient): 81%; Eff. % (Botrytis cinerea; 100 ppm of active ingredient): 76%; Eff. % (Uromyces appendiculatus; 100 ppm of active ingredient): 100%; Eff. % (Sphaerotheca fuliginea; 100 ppm of active ingredient): 100%; Eff. % (Septoria tritici; 100 ppm of active ingredient): 100%
CC1(C(O)(Cc2cccnc2Cl)Cn2cncn2)CC1 (stereo not drawn) [Example I-8] | 95% | 100% | 100% | 92% |  |  |  |  |  |  | 100% | 100% | 100% |  | 100% | Eff. % (Puccinia recondita; 100 ppm of active ingredient): 94%; LogP (method [a]: LC-MS at pH 2.7, 0.1% formic acid in water / acetonitrile gradient): 1.73^[a]; Eff. % (Botrytis cinerea; 100 ppm of active ingredient): 87%; Eff. % (Uromyces appendiculatus; 100 ppm of active ingredient): 100%; Eff. % (Sphaerotheca fuliginea; 100 ppm of active ingredient): 100%; Eff. % (Septoria tritici; 100 ppm of active ingredient): 94%
CC1(C(O)(Cc2ccncc2Cl)Cn2cncn2)CC1 (stereo not drawn) [Example I-49] | 96% | 100% | 100% | 100% | 100% | 1.57^[a] | 93% | 99% | 81% | 100% | 100% | 100% | 100% | 100% |  | 
CC(C)(F)C(O)(Cc1ccncc1Cl)Cn1cncn1 (racemic) [Example I-76] | 100% | 74% | 100% |  | 100% | 1.20^[a] | 79% | 100% | 100% | 100% |  | 100% | 86% | 100% | 71% | 
